Source: article PMC3498823 (Bioorganic & medicinal chemistry letters, 2011)
Entries after “also recorded” stand apart in the source; their conditions may differ.

Key:
[1] = tested on: amphetamine induced hyperlocomotion in rats; experiment: reversal of amphetamine-induced hyperlocomotion; type: in vivo; conditions: 30 mg/kg i.p.
mGlu5 receptor [2] = experiment: triple-add functional calcium mobilization assay, mGlu5; type: cell-based; conditions: PAM, Ago-PAM, weak PAM or partial antagonist
mGlu5 receptor [3] = conditions: HTS lead; cited from earlier work
mGlu5 receptor [4] = target: mGlu5 receptor (Rattus norvegicus, UniProt P31424); experiment: triple-add functional calcium mobilization assay, mGlu5; type: cell-based; conditions: PAM, Ago-PAM, weak PAM or partial antagonist
mGlu5 receptor (Rattus norvegicus, UniProt P31424), sequence (P31424 21-1203): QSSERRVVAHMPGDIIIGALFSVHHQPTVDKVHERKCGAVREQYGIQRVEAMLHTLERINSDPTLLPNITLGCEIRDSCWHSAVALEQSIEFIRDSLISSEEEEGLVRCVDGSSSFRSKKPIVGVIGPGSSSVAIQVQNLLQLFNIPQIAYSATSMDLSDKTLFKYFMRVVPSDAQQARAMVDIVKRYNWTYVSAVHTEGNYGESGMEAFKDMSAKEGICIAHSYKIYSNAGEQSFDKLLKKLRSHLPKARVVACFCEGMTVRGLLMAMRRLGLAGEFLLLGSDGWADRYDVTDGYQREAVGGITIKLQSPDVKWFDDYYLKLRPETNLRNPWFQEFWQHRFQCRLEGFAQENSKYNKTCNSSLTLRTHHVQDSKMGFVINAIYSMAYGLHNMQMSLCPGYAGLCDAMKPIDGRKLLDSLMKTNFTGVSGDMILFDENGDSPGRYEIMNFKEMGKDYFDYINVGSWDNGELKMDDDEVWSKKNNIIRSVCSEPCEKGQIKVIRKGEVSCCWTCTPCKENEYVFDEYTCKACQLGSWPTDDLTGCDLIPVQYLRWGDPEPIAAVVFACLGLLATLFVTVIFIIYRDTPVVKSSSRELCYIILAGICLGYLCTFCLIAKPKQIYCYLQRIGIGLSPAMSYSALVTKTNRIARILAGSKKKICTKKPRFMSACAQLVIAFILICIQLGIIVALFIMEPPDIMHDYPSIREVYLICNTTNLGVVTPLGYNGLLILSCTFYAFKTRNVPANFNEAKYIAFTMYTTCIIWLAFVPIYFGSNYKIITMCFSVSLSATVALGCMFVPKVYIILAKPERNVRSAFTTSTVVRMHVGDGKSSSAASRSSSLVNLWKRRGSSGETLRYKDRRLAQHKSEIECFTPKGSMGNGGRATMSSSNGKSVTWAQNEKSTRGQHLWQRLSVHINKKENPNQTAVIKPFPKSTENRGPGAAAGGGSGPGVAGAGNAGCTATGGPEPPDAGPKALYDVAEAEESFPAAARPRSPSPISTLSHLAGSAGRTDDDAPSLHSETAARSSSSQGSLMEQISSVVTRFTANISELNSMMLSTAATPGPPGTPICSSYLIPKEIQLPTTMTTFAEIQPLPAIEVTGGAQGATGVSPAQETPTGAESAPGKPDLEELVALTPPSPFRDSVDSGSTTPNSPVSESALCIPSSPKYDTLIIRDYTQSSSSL

[5] = tested on: in vivo preclinical antipsychotic model; conditions: orally active; cited from earlier work

mGlu5 receptor, sequence (P31424 21-1203): as above

O=C1c2ccc(C#Cc3ccccc3)cc2CCN1CC1CC1 [9f]
reversal of amphetamine-induced hyperlocomotion [1]: significant reversal

CCCCN1CCc2nc(C#Cc3cccc(F)c3)ccc2C1=O [10d]
Category (mode of pharmacology) (mGlu5 receptor [2]): Weak PAM

O=C(c1ccc(C#Cc2ccccc2)cc1)N1CCC(O)CC1 [VU0092273]
ligand efficiency (LE) (mGlu5 receptor [3]): ~0.5

CN1CCc2nc(C#Cc3cccc(F)c3)ccc2C1=O [10b]
Category (mode of pharmacology) (mGlu5 receptor [4]): partial antagonists; also recorded: Partial Antag

O=C1NCCc2cc(C#Cc3ccccc3)ccc21 [9a]
reversal of amphetamine-induced hyperlocomotion [1]: significant reversal

CC(C)CN1CCc2nc(C#Cc3cccc(F)c3)ccc2C1=O [10c]
Category (mode of pharmacology) (mGlu5 receptor [2]): Weak PAM

O=C(NC1CCC1)c1ccc(C#Cc2cccc(F)c2)nc1 [VU0360172]
efficacy in an in vivo preclinical antipsychotic model [5]: efficacious

O=C1c2ccc(C#Cc3cccc(F)c3)nc2CCN1CC1CC1 [10e]
Category (mode of pharmacology) (mGlu5 receptor [4]): partial antagonists; also recorded: Partial Antag

CCCN1CCc2cc(C#Cc3ccccc3)ccc2C1=O [9c]
reversal of amphetamine-induced hyperlocomotion [1]: significant reversal; also recorded: Reversal of amphetamine-induced hyperlocomotion
